Reference: article PMC4503722, “Novel Phenotypic Outcomes Identified for a Public Collection of Approved Drugs from a Publicly Accessible Panel of Assays” (PLoS ONE, 2015)
Where two headings read alike, the source gives them in different places.

How the values were obtained:
[1] = test system: endothelial tube formation in co-cultures of ECFCs and ADSCs treated with VEGF; experiment: cells; format: cell-based, human
HeLa cells = experiment: cells; format: cell-based; conditions: for Hela CellCycMod PI 2N IC50/EC50: assay number 14; for Hela CellCycMod PI S Phase IC50/EC50: assay number 15; for Hela CellCycMod PI 4N IC50/EC50: assay number 16; for Hela CellCycMod PI MI IC50/EC50: assay number 17; for Hela CellCycMod PI Cell Number IC50/EC50: assay number 18
DLD-1 = experiment: cells; format: cell-based; conditions: assay number 23
SW480 = experiment: cells; format: cell-based; conditions: assay number 24
HCT116 = experiment: cells; format: cell-based; conditions: assay number 25; basal
Colo320 = experiment: cells; format: cell-based; conditions: assay number 27
HT-29 = experiment: cells; format: cell-based; conditions: assay number 28
RKO = experiment: cells; format: cell-based; conditions: assay number 29
SNU-C1 = experiment: cells; format: cell-based; conditions: assay number 30; basal
hp70S6K1 (RPS6KB1) = target: T1, hp70S6K1 (RPS6KB1) (Homo sapiens, UniProt P23443); experiment: Cerep LANCE kinase assay hp70S6K1 (S1 assay 31); format: biochemical; conditions: for hp70S6K1 LANCE IC50/EC50: assay number 31
T1 construct: purchased Cerep (LANCE kinase assay platform, contract assay)

hKDR = target: T2, hKDR (Homo sapiens, UniProt P35968); experiment: Cerep LANCE kinase assay hKDR (S1 assay 32); format: biochemical; conditions: for hKDR LANCE IC50/EC50: assay number 32
T2 construct: purchased Cerep (LANCE kinase assay platform, contract assay)

hJAK2 = target: T3, hJAK2 (Homo sapiens, UniProt O60674); experiment: Cerep LANCE kinase assay hJAK2 (S1 assay 33); format: biochemical; conditions: for hJAK2 LANCE IC50/EC50: assay number 33
T3 construct: purchased Cerep (LANCE kinase assay platform, contract assay)

hGSK3b = target: T4, hGSK3b (Homo sapiens, UniProt P49841); experiment: Cerep LANCE kinase assay hGSK3b (S1 assay 34); format: biochemical; conditions: for hGSK3b LANCE IC50/EC50: assay number 34
T4 construct: purchased Cerep (LANCE kinase assay platform, contract assay)

hFLT3 = target: T5, hFLT3 (Homo sapiens, UniProt P36888); experiment: Cerep LANCE kinase assay hFLT3 (S1 assay 35); format: biochemical; conditions: for hFLT3 LANCE IC50/EC50: assay number 35
T5 construct: purchased Cerep (LANCE kinase assay platform, contract assay)

[2] = test system: ECFC/ADSC co-culture cell nuclei number

T4 sequence (P49841 whole entry): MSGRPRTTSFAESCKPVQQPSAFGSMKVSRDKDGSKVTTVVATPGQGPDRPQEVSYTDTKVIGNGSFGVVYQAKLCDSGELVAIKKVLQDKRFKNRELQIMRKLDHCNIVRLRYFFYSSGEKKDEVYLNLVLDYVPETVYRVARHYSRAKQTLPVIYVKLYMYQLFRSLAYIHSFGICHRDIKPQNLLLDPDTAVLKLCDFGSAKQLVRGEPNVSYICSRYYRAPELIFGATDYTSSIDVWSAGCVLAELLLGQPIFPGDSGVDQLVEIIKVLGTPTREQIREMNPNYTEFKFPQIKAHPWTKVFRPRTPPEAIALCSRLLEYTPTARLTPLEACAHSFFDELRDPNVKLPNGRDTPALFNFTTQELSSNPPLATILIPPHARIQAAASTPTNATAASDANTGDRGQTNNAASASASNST
T5 sequence (P36888 27-993): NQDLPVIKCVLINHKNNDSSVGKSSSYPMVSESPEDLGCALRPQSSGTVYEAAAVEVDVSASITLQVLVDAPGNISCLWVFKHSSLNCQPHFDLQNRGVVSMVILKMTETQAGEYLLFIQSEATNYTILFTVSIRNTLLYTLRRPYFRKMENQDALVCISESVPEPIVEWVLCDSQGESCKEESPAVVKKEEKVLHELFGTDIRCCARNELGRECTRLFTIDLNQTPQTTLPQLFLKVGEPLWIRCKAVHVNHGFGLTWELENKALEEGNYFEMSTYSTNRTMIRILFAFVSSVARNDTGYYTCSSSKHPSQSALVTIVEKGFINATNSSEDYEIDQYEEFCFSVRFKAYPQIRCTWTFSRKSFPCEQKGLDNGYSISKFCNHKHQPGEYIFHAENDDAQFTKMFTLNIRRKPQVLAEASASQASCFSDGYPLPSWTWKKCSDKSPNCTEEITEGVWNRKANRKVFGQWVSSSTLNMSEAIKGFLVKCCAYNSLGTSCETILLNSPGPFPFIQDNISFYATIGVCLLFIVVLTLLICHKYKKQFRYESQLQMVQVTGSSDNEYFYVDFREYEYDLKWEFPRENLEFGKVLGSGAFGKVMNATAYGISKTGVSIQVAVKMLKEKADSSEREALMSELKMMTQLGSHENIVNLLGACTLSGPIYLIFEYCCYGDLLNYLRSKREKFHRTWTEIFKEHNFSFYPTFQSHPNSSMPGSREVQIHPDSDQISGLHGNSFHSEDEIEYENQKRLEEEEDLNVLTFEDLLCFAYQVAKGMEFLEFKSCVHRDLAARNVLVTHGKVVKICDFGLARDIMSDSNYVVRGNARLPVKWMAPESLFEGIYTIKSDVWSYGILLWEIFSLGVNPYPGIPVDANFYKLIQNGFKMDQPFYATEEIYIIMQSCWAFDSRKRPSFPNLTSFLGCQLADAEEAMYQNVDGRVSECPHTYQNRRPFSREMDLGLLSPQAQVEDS
T3 sequence (O60674 whole entry): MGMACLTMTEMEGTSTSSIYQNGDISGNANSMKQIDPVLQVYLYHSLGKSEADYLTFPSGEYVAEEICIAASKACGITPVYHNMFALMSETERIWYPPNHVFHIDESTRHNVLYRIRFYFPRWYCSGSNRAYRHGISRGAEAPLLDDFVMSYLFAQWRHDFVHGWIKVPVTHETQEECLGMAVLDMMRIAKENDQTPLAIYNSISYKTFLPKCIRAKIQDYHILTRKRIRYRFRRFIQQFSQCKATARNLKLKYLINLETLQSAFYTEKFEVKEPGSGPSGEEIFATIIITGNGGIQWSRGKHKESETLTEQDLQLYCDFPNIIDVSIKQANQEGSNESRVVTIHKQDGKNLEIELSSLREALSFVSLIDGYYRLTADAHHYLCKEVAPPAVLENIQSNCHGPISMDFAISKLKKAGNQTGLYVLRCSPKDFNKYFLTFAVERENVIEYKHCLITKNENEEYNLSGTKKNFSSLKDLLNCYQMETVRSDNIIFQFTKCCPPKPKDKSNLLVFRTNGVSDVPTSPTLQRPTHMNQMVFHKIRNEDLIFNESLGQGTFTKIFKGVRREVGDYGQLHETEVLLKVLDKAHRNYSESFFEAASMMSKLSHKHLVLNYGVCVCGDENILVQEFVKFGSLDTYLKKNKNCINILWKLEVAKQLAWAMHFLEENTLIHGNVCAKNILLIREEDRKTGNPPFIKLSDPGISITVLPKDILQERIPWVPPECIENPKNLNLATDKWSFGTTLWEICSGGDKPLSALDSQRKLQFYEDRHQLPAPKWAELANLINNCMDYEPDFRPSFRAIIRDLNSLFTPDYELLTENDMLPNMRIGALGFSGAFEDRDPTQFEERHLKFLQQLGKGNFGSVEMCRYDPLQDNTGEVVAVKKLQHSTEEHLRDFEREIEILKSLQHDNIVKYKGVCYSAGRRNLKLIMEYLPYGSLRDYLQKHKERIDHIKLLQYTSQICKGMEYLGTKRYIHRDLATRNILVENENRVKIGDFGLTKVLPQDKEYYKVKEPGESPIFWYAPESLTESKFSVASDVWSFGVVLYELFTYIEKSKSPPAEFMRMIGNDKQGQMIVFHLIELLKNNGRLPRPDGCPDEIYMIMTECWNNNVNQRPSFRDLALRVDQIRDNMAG
T2 sequence (P35968 20-1356): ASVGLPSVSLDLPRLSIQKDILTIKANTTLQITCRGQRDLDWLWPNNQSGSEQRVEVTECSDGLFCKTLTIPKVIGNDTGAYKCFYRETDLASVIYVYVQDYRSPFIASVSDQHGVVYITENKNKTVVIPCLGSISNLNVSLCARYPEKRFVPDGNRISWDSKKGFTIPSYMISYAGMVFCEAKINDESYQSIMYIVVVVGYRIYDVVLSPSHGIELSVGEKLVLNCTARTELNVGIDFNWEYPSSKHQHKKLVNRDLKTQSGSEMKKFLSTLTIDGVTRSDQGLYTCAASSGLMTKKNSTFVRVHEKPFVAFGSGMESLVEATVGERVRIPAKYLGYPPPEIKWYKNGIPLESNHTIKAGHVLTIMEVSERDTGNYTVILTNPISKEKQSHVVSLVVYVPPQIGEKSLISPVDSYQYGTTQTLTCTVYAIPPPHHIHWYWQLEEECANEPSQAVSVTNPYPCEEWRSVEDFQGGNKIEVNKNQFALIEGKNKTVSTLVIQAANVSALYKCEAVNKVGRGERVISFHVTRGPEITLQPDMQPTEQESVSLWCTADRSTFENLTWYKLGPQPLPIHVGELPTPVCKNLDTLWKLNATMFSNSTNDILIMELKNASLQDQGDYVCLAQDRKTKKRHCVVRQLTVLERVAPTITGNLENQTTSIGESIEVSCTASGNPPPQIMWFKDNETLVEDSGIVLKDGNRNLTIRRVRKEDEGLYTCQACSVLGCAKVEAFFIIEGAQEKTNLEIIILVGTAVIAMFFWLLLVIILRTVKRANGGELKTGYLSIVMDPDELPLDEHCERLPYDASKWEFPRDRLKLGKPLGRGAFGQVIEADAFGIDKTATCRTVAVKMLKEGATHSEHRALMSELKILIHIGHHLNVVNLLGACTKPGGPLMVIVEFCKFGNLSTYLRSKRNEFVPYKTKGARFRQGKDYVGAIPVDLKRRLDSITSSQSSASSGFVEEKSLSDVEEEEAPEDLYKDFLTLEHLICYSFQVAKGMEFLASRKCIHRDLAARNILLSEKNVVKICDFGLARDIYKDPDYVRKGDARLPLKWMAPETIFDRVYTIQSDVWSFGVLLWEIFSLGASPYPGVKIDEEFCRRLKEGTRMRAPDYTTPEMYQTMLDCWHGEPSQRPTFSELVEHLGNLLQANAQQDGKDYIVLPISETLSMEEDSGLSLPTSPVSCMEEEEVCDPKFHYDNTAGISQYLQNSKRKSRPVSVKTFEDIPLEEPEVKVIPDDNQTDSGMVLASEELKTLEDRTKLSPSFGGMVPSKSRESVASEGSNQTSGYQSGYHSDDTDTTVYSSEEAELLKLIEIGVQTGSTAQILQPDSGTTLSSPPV
T1 sequence (P23443 whole entry): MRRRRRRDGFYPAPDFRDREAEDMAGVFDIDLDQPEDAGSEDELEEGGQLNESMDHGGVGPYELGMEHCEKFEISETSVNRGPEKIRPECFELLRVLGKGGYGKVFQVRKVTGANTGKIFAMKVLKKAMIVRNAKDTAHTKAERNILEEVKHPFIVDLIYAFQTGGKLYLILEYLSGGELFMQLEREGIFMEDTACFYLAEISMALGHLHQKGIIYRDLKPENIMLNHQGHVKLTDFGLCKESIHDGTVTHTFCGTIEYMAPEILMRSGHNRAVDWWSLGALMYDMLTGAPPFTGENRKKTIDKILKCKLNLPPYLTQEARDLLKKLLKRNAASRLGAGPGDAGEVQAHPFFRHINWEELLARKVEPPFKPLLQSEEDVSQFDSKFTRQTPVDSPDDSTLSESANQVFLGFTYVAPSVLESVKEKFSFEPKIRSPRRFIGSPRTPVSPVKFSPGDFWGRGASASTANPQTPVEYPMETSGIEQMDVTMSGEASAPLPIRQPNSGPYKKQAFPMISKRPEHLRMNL

Structure (SMILES)	VEGF_ADSC\ECFC Angio CD31 TubeArea IC50/EC50 [1] [µM]	Hela CellCycMod PI 2N IC50/EC50 (HeLa cells) [µM]	Hela CellCycMod PI S Phase IC50/EC50 (HeLa cells) [µM]	Hela CellCycMod PI 4N IC50/EC50 (HeLa cells) [µM]	Hela CellCycMod PI MI IC50/EC50 (HeLa cells) [µM]	Hela CellCycMod PI Cell Number IC50/EC50 (HeLa cells) [µM]	Basal_Viability ATP HCT116 IC50/EC50 (HCT116) [µM]	hp70S6K1 LANCE IC50/EC50 (hp70S6K1 (RPS6KB1)) [µM]	hKDR LANCE IC50/EC50 (hKDR) [µM]	hJAK2 LANCE IC50/EC50 (hJAK2) [µM]	hGSK3b LANCE IC50/EC50 (hGSK3b) [µM]	hFLT3 LANCE IC50/EC50 (hFLT3) [µM]	VEGF_ADSC\ECFC Angio Hoechst NucArea IC50/EC50 [2] [µM]	IC50 (hKDR) [µM]	other results
COc1ccc(-c2ccc3cc(C(=O)O)ccc3c2)cc1C12CC3CC(CC(C3)C1)C2 [NCGC00164617-04]	0.5236	> 10	> 10	> 10	> 10	5.4943	0.5897	> 20	7.1	5.57	7.25	> 20	> 10		Basal_Viability ATP DLD-1 IC50/EC50 (DLD-1; basal): 0.5971 µM; Basal_Viability ATP SW480 IC50/EC50 (SW480; basal): 0.4051 µM; Basal_Viability ATP Colo 320 IC50/EC50 (Colo320; basal): 0.7871 µM; Basal_Viability ATP HT-29 IC50/EC50 (HT-29; basal): 1.1248 µM; Basal_Viability ATP RKO IC50/EC50 (RKO; basal): 0.4435 µM; Basal_Viability ATP SNU-C1 IC50/EC50 (SNU-C1): 1.7798 µM
C[C@@H]1C[C@@H]([C@H](O)CC2CC(=O)NC(=O)C2)C(=O)[C@@H](C)C1 [NCGC00169964-05]	1.1486	> 10		> 10	> 10	0.5421		> 20	> 20	> 20	> 20	> 20	> 10		
CC(C)(C)C1CCC(CC2=C(O)c3ccccc3C(=O)C2=O)CC1 (stereo not drawn) [NCGC00253624-01]	1.9625	> 10	> 10	> 10	> 10	> 10	0.2268	> 20	> 20	> 20	> 20	> 20	> 10		Basal_Viability ATP DLD-1 IC50/EC50 (DLD-1): 0.2185 µM; Basal_Viability ATP SW480 IC50/EC50 (SW480): 0.2047 µM; Basal_Viability ATP Colo 320 IC50/EC50 (Colo320): 0.2548 µM; Basal_Viability ATP HT-29 IC50/EC50 (HT-29): 3.3906 µM; Basal_Viability ATP RKO IC50/EC50 (RKO): 0.1329 µM
CCC(C)n1ncn(-c2ccc(N3CCN(c4ccc(OC[C@H]5CO[C@](Cn6cncn6)(c6ccc(Cl)cc6Cl)O5)cc4)CC3)cc2)c1=O (stereo partly drawn) [NCGC00274068-01]	1.5488	> 10		> 10	> 10	> 10		> 20	> 20	> 20	> 20	> 20	> 10		
COc1cc2c(c(OC)c1OC)-c1ccc(OC)c(=O)cc1[C@@H](NC(C)=O)CC2 [colchicine]														> 20	IC50 (hp70S6K1 (RPS6KB1)): > 20 µM; IC50 (hJAK2): > 20 µM; IC50 (hGSK3b): > 20 µM; IC50 (hFLT3): > 20 µM
O=C(CCCCCCC(=O)Nc1ccccc1)NO [vorinostat]														> 20	IC50 (hp70S6K1 (RPS6KB1); kinase assay, read-out: p70S6K1): > 20 µM; IC50 (hJAK2; kinase assay, read-out: JAK2): > 20 µM; IC50 (hGSK3b; kinase assay, read-out: GSK3b): > 20 µM; IC50 (hFLT3; kinase assay, read-out: FLT3): > 20 µM
